These results are taken from ChEMBL document CHEMBL1201862, “PubChem BioAssay data set” (2004).

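Grown in 96-well plates, cells were treated for 48 hours with each compound at five concentrations. Insufficient inhibition: endpoint recorded as highest concentration tested. GI50 is the concentration that inhibits growth by half.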 The source made the active and inactive calls. Cut-off read from the data, not from the text of the source: active = GI50 up to about 1.1 µM and inactive = higher.

Common to all, as to assay: NCI-60 cell line screen, 48 h
Assay [1] deals with OVCAR-8.
Assay [2] has as its system CCRF-CEM.
Assay [3] deals with MDA-N.
Assay [4] has as its system SF-539.
Assay [5] has as its system MDA-MB-231.
The subject of assay [6] is DU-145.
For assay [7], the system named is RXF 393.
Assay [8] concerns Malme-3M.
The test system of assay [9] is SR.
The subject of assay [10] is SK-MEL-5.
Assay [11] has as its system T47D.
For assay [12], the system named is CAKI-1.
Assay [13] deals with PC-3.
The subject of assay [14] is MDA-MB-435.
The test system of assay [15] is HL-60.
Assay [16] has as its system 786-0.
The subject of assay [17] is Hs-578T.
Assay [18] deals with BT-549.
In assay [19] the test system is NCI/ADR-RES.

With `O=[N+]([O-])/C(C(Cl)=C(Cl)Cl)=C1\Nc2ccccc2O1`, the GI50 in assay [1] was 25.2 µM (inactive); in [2], 19.5 µM (inactive); in assay [3], 45.4 µM (inactive); in assay [4], 19.9 µM (inactive); in assay [5], 44.3 µM (inactive); in [6], > 100 µM (inactive). Besides, the GI50 in assay [7] was > 100 µM (inactive); in [8] it was 27.9 µM (inactive); in [9] it was 24.9 µM (inactive); in assay [10] it was > 100 µM (inactive); in assay [11], > 100 µM (inactive); in assay [12], > 100 µM (inactive). In addition, the GI50 in assay [13] is 70.5 µM (inactive); in assay [14], 36.6 µM (inactive); in assay [15], 28.8 µM (inactive); in [16], 17 µM (inactive); in [17] it was 32.3 µM (inactive).
On to `Nc1nc(SCCc2ccccc2)nc2nc3c(c(-c4ccccc4)c12)CCCC3`, for which the GI50 in assay [1] was > 100 µM (inactive); in assay [2], > 100 µM (inactive); in assay [3], > 100 µM (inactive); in [4], 0.706 µM (active); in [5], > 100 µM (inactive); in [6] it was > 100 µM (inactive). The GI50 was 24.3 µM (inactive) in [7]; > 100 µM (inactive) in [8]; > 10 µM (inactive) in assay [10]; > 100 µM (inactive) in assay [11]; > 100 µM (inactive) in assay [12]; > 100 µM (inactive) in assay [13]. In addition, the GI50 is > 100 µM (inactive) in [14]; > 100 µM (inactive) in assay [15]; 42 µM (inactive) in assay [18]; > 100 µM (inactive) in assay [19]; 8.65 µM (inactive) in assay [17].
`C[C@@H](NC(=O)[C@@H]1C[C@]1(C)COC(=O)c1cc([N+](=O)[O-])cc([N+](=O)[O-])c1)c1cccc2ccccc12`: the GI50 in [1] is > 100 µM (inactive); in [2], > 100 µM (inactive); in assay [3], > 100 µM (inactive); in [5], > 100 µM (inactive); in [6], > 100 µM (inactive); in assay [7], 12.6 µM (inactive). Moreover, the GI50 in assay [8] was 6.87 µM (inactive); in assay [9], > 100 µM (inactive); in assay [10], > 100 µM (inactive); in assay [11], 65.3 µM (inactive); in assay [12], > 100 µM (inactive); in assay [13] it was > 100 µM (inactive). For the same compound, the GI50 in [14] was > 100 µM (inactive); in [18], > 100 µM (inactive); in [19], > 100 µM (inactive); in [16] it was > 100 µM (inactive); in assay [17], 20 µM (inactive).
For the compound `COC(C[C@H]1CCCC[C@]1(O)/C(=C\CO[Si](C(C)C)(C(C)C)C(C)C)Sc1ccccc1)OC`, the GI50 was 49.8 µM (inactive) in assay [1]; 27 µM (inactive) in assay [2]; 45.2 µM (inactive) in assay [3]; 18.9 µM (inactive) in [5]; 40.1 µM (inactive) in [6]; 16.1 µM (inactive) in assay [7]. The GI50 in assay [8] was 22.5 µM (inactive); in assay [9] it was 20.7 µM (inactive); in [10], 30.3 µM (inactive); in assay [11], 12.6 µM (inactive); in assay [12], 32.4 µM (inactive); in assay [13], 35.6 µM (inactive). In addition, the GI50 in assay [14] is 33 µM (inactive); in assay [15], 38.2 µM (inactive); in [19], 87.3 µM (inactive); in assay [16], 39.4 µM (inactive); in assay [17], 29.4 µM (inactive).
`COn1oc(=O)c2ccccc21`: the GI50 in [1], in assay [2], in [3], in assay [4], in assay [5] and in assay [6] was > 100 µM (inactive) in each case. The GI50 was > 100 µM (inactive) in [7]; 91.2 µM (inactive) in assay [8]; > 100 µM (inactive) in assay [10]; > 100 µM (inactive) in assay [12]; > 100 µM (inactive) in [13]; > 100 µM (inactive) in assay [14]. Further, the GI50 in assay [15], in assay [18], in [19], in assay [16] and in assay [17] was > 100 µM (inactive) throughout.
`CON(C)c1nc(N)c(C#N)c(C#N)c1C#N`: the GI50 is > 10 µM (inactive) in assay [1]; 4.02 µM (inactive) in [2]; > 10 µM (inactive) in assay [3]; > 10 µM (inactive) in assay [4]; > 10 µM (inactive) in assay [5]; > 10 µM (inactive) in assay [6]. In addition, the GI50 in assay [7], in assay [8], in assay [9], in assay [10], in assay [11] and in [12] was > 10 µM (inactive) throughout. For the same compound, the GI50 in assay [13] was > 10 µM (inactive); in assay [14] it was > 10 µM (inactive); in assay [15], 4.16 µM (inactive); in assay [19] it was > 10 µM (inactive); in [17], > 10 µM (inactive).
Turning to `C/C(=C\c1ccccc1)n1c(=O)cc(C)n1C`, the GI50 in [1], in assay [2], in [3], in assay [4], in assay [6] and in [7] was > 100 µM (inactive) each time. Besides, the GI50 in [10], in assay [11], in assay [12], in [13], in assay [14] and in assay [18] was > 100 µM (inactive) in each case. The GI50 in [19] and in assay [17] was > 100 µM (inactive) throughout.
Turning to `Cc1cc([N+](=O)[O-])ccc1/N=N/C(=O)NNc1ccc([N+](=O)[O-])cc1C`, the GI50 in [1] is 14.7 µM (inactive); in [2], 20.1 µM (inactive); in assay [3], 15.7 µM (inactive); in [5] it was > 10 µM (inactive); in [6], 16.5 µM (inactive); in [8], 17.3 µM (inactive). In addition, the GI50 in assay [9] is 20.7 µM (inactive); in [10], 13.6 µM (inactive); in assay [11], 15.3 µM (inactive); in assay [12] it was 14.8 µM (inactive); in [13], 13.5 µM (inactive); in assay [14], 12.8 µM (inactive). The GI50 in [15] is 20 µM (inactive); in assay [18], 11.6 µM (inactive); in assay [16] it was 16.9 µM (inactive).
For `Oc1cc(-c2ccc(Cl)cc2)nc2ncccc12`, the GI50 in [1] is 61.9 µM (inactive); in assay [2] it was 41.7 µM (inactive); in assay [4], 45.5 µM (inactive); in assay [5] it was 64.6 µM (inactive); in [6] it was > 100 µM (inactive); in assay [8], 28.6 µM (inactive). In addition, the GI50 in assay [9] was 5.56 µM (inactive); in assay [11], 61.7 µM (inactive); in assay [12], 61.9 µM (inactive); in assay [18], > 100 µM (inactive); in assay [19], 36 µM (inactive); in assay [17] it was 56.2 µM (inactive).
